Tested on: HEK293 and TMD8 cells
Assay: Proteomics experiment (TMT quantification mass spectrometry of protein abundance)
Format: cell-based
Settings: 1 μM, 6 hours, FIG. 3E
Protocol: HEK293 and TMD8 cells were treated with 1 μM dasatinib, 1 μM compound 06, 1 μM compound 07 or DMSO and protein abundance was analyzed using TMT quantification mass spectrometry. Significant changes were assessed by limma, log 2 fold changes are shown on the x-axis and p-values on the y-axis. Proteins with kinase annotations in UniProt are shown as squares and kinases with a log2 fold change≤−0.6 and a p-value≤0.01 are labeled with the corresponding gene name.
HEK293 and TMD8 cells were treated for 6 hours with DMSO (3 replicates), 1 μM dasatinib (2 replicates), 1 μM compound 06 (3 replicates) and 1 μM compound 07 (3 replicates), respectively. TMT11plex-labeled peptides were generated with the PreOmics iST-NHS kit according to the manufacturer's protocol (PreOmics, Germany). […] The 24 fractions were analyzed with a 25 cm×75 μm ID, 1.6 μm C18 Aurora Series emitter column (IonOpticks, Australia) on an EASY-nLC 1200 system coupled to an Orbitrap™ Fusion Lumos mass spectrometer (Thermo Fisher Scientific, USA). […] The Proteome Discoverer™ 2.1 software and the SEQUEST algorithm was used for protein identification and relative quantification. Log2 fold changes of protein abundances and p-values were calculated in Python and R with the limma package (Ritchie M E et al. Limma powers differential expression analyses for RNA-sequencing and microarray studies. Nucleic Acids Res. 2015, 43(7):e47).

Compound	degradation of bound kinase targets (proteomics)
COc1ccc(C(=O)N2CCC3(CCN(C(=O)CN4CCN(c5cc(Nc6ncc(C(=O)Nc7c(C)cccc7Cl)s6)nc(C)n5)CC4)CC3)CC2)cc1N1CCC(=O)NC1=O [compound 07, N-(2-chloro-6-methylphenyl)-2-((6-(4-(2-(9-(3-(2,4-dioxotetrahydropyrimidin-1(2H)-yl)-4-methoxybenzoyl)-3,9-diazaspiro[5.5]undecan-3-yl)-2-oxoethyl)piperazin-1-yl)-2-methylpyrimidin-4-yl)amino)thiazole-5-carboxamide]	able to degrade several of the targets to which they bind
COc1ccc(C(=O)N2CCC3(CCN(C(=O)CCCCCCCN4CCN(c5cc(Nc6ncc(C(=O)Nc7c(C)cccc7Cl)s6)nc(C)n5)CC4)CC3)CC2)cc1N1CCC(=O)NC1=O [compound 06, N-(2-chloro-6-methylphenyl)-2-((6-(4-(8-(9-(3-(2,4-dioxotetrahydropyrimidin-1(2H)-yl)-4-methoxybenzoyl)-3,9-diazaspiro[5.5]undecan-3-yl)-8-oxooctyl)piperazin-1-yl)-2-methylpyrimidin-4-yl)amino)thiazole-5-carboxamide]	able to degrade several of the targets to which they bind
